Patent US20140206682A1, “COMPOUNDS AND COMPOSITIONS AS PDGFR KINASE INHIBITORS” (NOVARTIS PHARMACEUTICALS UK LIMITED, priority 2011, published 2014)

Tested on: PDGFR
Assay: Rat A10 cell proliferation assay
Format: cell-based
Details: Table 1; Rat A10 cells, recombinant rat PDGF-BB, CellTiter-Glo after 68 hours
Method: Compounds of Formula (I) provided herein were assayed to measure their capacity to inhibit c-kit and PDGFR kinases using the appropriate assay described below: c-Kit inhibition was evaluated using the Mo7e cell proliferation assay, and PDGFR inhibition was evaluated using the Rat A10 cell proliferation assay and the Human TG/HA-VSMC cell proliferation assay.
Rat A10 cells (ATCC) were resuspended in DMEM supplemented with 1% FBS and 10 ng/mL recombinant rat PDGF-BB at 20,000 cells/mL. The cells were aliquoted into 384 well plates at 50 μL/well and incubated for 4 hours at 37° C. 0.5 μL of test compound 3-fold serially diluted in DMSO was added to each well. The plates were returned to the incubator for a further 68 hours. 25 μL of CellTiter-Glo (Promega) was added to each well and the plates were incubated on the bench for 15 minutes. Luminescence was then read using a CLIPR CCD camera (Molecular Devices).

Row | Compound | IC50 [nM]
1 | Cn1nccc1-c1ccn2c(C(=O)Nc3cc(C(=O)N[C@H](CO)[C@H](O)c4ccccc4)ccc3F)cnc2c1 [F130, N-(5-{[(1R,2R)-1,3-dihydroxy-1-phenylpropan-2-yl]carbamoyl}-2-fluorophenyl)-7-(1-methyl-1H-pyrazol-5-yl)imidazo[1,2-a]pyridine-3-carboxamide] | 104
2 | O=C(N[C@@H]1c2ccccc2OC[C@@H]1O)c1ccc(F)c(NC(=O)c2cnc3ccccn23)c1 (racemic) [F34, N-(2-fluoro-5-{[(3R,4R)-3-hydroxy-3,4-dihydro-2H-1-benzopyran-4-yl]carbamoyl}phenyl)imidazo[1,2-a]pyridine-3-carboxamide] | 195
3 | Cc1ccc(C(=O)NCc2ccccc2N2CCC(O)C2)cc1NC(=O)c1cnc2ccccn12 (stereo not drawn) [F31, N-[5-({[2-(3-hydroxypyrrolidin-1-yl)phenyl]methyl}carbamoyl)-2-methylphenyl]imidazo[1,2-a]pyridine-3-carboxamide] | 42
4 | COC[C@H](NC(=O)c1ccc(F)c(NC(=O)c2cnc3ccccn23)c1)[C@@H](O)c1ccccc1 [F117, N-(2-fluoro-5-{[(1S,2S)-1-hydroxy-3-methoxy-1-phenylpropan-2-yl]carbamoyl}phenyl)imidazo[1,2-a]pyridine-3-carboxamide] | 13
5 | COc1ccc2ncc(C(=O)Nc3cc(C(=O)N[C@@H]4c5ccccc5C[C@@H]4O)ccc3F)n2c1 [F19, N-(2-fluoro-5-{[(1R,2S)-2-hydroxy-2,3-dihydro-1H-inden-1-yl]carbamoyl}phenyl)-6-methoxyimidazo[1,2-a]pyridine-3-carboxamide] | 82
6 | O=C(N[C@@H](CO)[C@@H](O)c1ccccc1)c1ccc(F)c(NC(=O)c2cnc3ccccn23)c1 [F123, N-(5-{[(1S,2S)-1,3-dihydroxy-1-phenylpropan-2-yl]carbamoyl}-2-fluorophenyl)imidazo[1,2-a]pyridine-3-carboxamide] | 44
7 | Cc1ccc(C(=O)NCc2ccccc2N2CCCC(O)C2)cc1NC(=O)c1cnc2ccccn12 (stereo not drawn) [F30, N-[5-({[2-(3-hydroxypiperidin-1-yl)phenyl]methyl}carbamoyl)-2-methylphenyl]imidazo[1,2-a]pyridine-3-carboxamide] | 27
8 | Cc1ccc2ncc(C(=O)Nc3cc(C(=O)N[C@@H]4c5ccc(F)cc5C[C@@H]4O)ccc3F)n2c1 [F28, N-(2-fluoro-5-{[(1R,2S)-5-fluoro-2-hydroxy-2,3-dihydro-1H-inden-1-yl]carbamoyl}phenyl)-6-methylimidazo[1,2-a]pyridine-3-carboxamide] | 129
9 | O=C(NC[C@@H](O)c1ccccc1F)c1ccc(F)c(NC(=O)c2cnc3ccccn23)c1 [F122, N-(2-fluoro-5-{[(2S)-2-(2-fluorophenyl)-2-hydroxyethyl]carbamoyl}phenyl)imidazo[1,2-a]pyridine-3-carboxamide] | 60

Same assay, conditions: Table 2; Rat A10 cells, recombinant rat PDGF-BB, CellTiter-Glo after 68 hours

Row | Compound | IC50 [nM]
10 | O=C(N[C@@H]1CCCC[C@@H]1O)c1ccc(F)c(NC(=O)c2cnc3ccccn23)c1 [F82, N-(2-fluoro-5-{[(1R,2S)-2-hydroxycyclohexyl]carbamoyl}phenyl)imidazo[1,2-a]pyridine-3-carboxamide] | 304
11 | O=C(N[C@@H]1c2ccccc2C[C@@H]1O)c1ccc(F)c(NC(=O)c2cnc3ccc(COCC(F)(F)F)cn23)c1 (stereo in doubt) [F61, N-(2-fluoro-5-{[(1R,2S)-2-hydroxy-2,3-dihydro-1H-inden-1-yl]carbamoyl}phenyl)-6-[(2,2,2-trifluoroethoxy)methyl]imidazo[1,2-a]pyridine-3-carboxamide] | 618
12 | Cc1ccc2ncc(C(=O)Nc3cc(C(=O)N[C@@H]4c5ccccc5C[C@@H]4O)c(C)cc3F)n2c1 [F88, N-(2-fluoro-5-{[(1R,2S)-2-hydroxy-2,3-dihydro-1H-inden-1-yl]carbamoyl}-4-methylphenyl)-6-methylimidazo[1,2-a]pyridine-3-carboxamide] | 2190
13 | Cc1ccn2c(C(=O)Nc3cc(C(=O)N[C@H]([C@@H](O)c4ccccc4)C(C)(C)O)ccc3F)cnc2c1 [F108, N-(5-{[(1S,2R)-1,3-dihydroxy-3-methyl-1-phenylbutan-2-yl]carbamoyl}-2-fluorophenyl)-7-methylimidazo[1,2-a]pyridine-3-carboxamide] | 255
14 | CSc1ccc([C@H](O)[C@H](CO)NC(=O)c2ccc(F)c(NC(=O)c3cnc4ccccn34)c2)cc1 [F92, N-(5-{[(1S,2S)-1,3-dihydroxy-1-[4-(methylsulfanyl)phenyl]propan-2-yl]carbamoyl}-2-fluorophenyl)imidazo[1,2-a]pyridine-3-carboxamide] | 283
15 | C[C@@]1(O)CCCC[C@H]1NC(=O)c1ccc(F)c(NC(=O)c2cnc3ccccn23)c1 [F103, N-(2-fluoro-5-{[(1R,2R)-2-hydroxy-2-methylcyclohexyl]carbamoyl}phenyl)imidazo[1,2-a]pyridine-3-carboxamide] | > 10000
16 | O=C(N[C@@H]1CCSC[C@H]1O)c1ccc(F)c(NC(=O)c2cnc3ccccn23)c1 [F105, N-(2-fluoro-5-{[(3S,4R)-3-hydroxythian-4-yl]carbamoyl}phenyl)imidazo[1,2-a]pyridine-3-carboxamide] | 840
17 | O=C(N[C@H]1c2ccccc2C[C@H]1O)c1ccc(F)c(NC(=O)c2cnc3ccc(COCC(F)(F)F)cn23)c1 [F70, N-(2-fluoro-5-{[(1S,2R)-2-hydroxy-2,3-dihydro-1H-inden-1-yl]carbamoyl}phenyl)-6-[(2,2,2-trifluoroethoxy)methyl]imidazo[1,2-a]pyridine-3-carboxamide] | 2090
18 | CCC[C@@H](CO)NC(=O)c1ccc(F)c(NC(=O)c2cnc3ccccn23)c1 [F49, N-(2-fluoro-5-{[(2S)-1-hydroxypentan-2-yl]carbamoyl}phenyl)imidazo[1,2-a]pyridine-3-carboxamide] | 373
19 | O=C(N[C@H]1CCCCC1O)c1cccc(NC(=O)c2cnc3ccccn23)c1 (stereo in doubt) [F67, N-(3-{[(1S,2S)-2-hydroxycyclohexyl]carbamoyl}phenyl)imidazo[1,2-a]pyridine-3-carboxamide] | 1360
20 | O=C(N[C@H]1CCCC[C@H]1CO)c1ccc(F)c(NC(=O)c2cnc3ccccn23)c1 [F59] | 603
21 | Cc1ccc2ncc(C(=O)Nc3cc(C(=O)N[C@@H]4c5ccc(Cl)cc5C[C@@H]4O)ccc3F)n2c1 [F84, N-(5-{[(1R,2S)-5-chloro-2-hydroxy-2,3-dihydro-1H-inden-1-yl]carbamoyl}-2-fluorophenyl)-6-methylimidazo[1,2-a]pyridine-3-carboxamide] | 584
22 | O=C(N[C@H]1CC[C@@H](O)CC1)c1ccc(F)c(NC(=O)c2cnc3ccccn23)c1 [F104, N-{2-fluoro-5-[(4-hydroxycyclohexyl)carbamoyl]phenyl}imidazo[1,2-a]pyridine-3-carboxamide] | > 10000
23 | O=C(NCC1(O)CCC1)c1cccc(NC(=O)c2cnc3ccccn23)c1 [F73, N-(3-{[(1-hydroxycyclobutyl)methyl]carbamoyl}phenyl)imidazo[1,2-a]pyridine-3-carboxamide] | 3270
24 | O=C(N[C@@H]1c2cc(Cl)ccc2C[C@@H]1O)c1ccc(F)c(NC(=O)c2cnc3ccc(F)cn23)c1 (stereo in doubt) [F42, N-(5-{[(1R,2S)-6-chloro-2-hydroxy-2,3-dihydro-1H-inden-1-yl]carbamoyl}-2-fluorophenyl)-6-fluoroimidazo[1,2-a]pyridine-3-carboxamide] | 277
